Experimental data taken from the NIST ThermoML archive (doi:10.1016/j.jct.2019.03.007).
“And” between values parts separate entries of the source, which are not always exact repeats. Equal entries are not always repeated.

Key:
[1] = Molar enthalpy of transition or fusion; conditions: DSC
[2] = for molar volume: 100 kPa, X-ray diffraction; for Triple point temperature: DSC

O=[N+]([O-])[O-].O=[N+]([O-])[O-].[Ca+2] [calcium nitrate]
Conditions | Molar enthalpy of transition or fusion, [1] [kcal/mol] | Triple point temperature, [2] [K]
Crystal 1 | 7.98 | 823
Crystal 2 | 0.0289 | 290

[2], Crystal 1
Conditions | molar volume
298 K | 6.616e-05 m3/mol and 6.614e-05 m3/mol
323 K | 6.637e-05 m3/mol and 6.638e-05 m3/mol
348 K | 6.658e-05 m3/mol
373 K | 6.68e-05 m3/mol
398 K | 6.702e-05 m3/mol and 6.703e-05 m3/mol
423 K | 6.725e-05 m3/mol and 6.726e-05 m3/mol
448 K | 6.748e-05 m3/mol and 6.749e-05 m3/mol
473 K | 6.771e-05 m3/mol and 6.773e-05 m3/mol
498 K | 6.794e-05 m3/mol and 6.797e-05 m3/mol
523 K | 6.818e-05 m3/mol and 6.821e-05 m3/mol
548 K | 6.845e-05 m3/mol and 6.842e-05 m3/mol
573 K | 6.871e-05 m3/mol and 6.866e-05 m3/mol
598 K | 6.9e-05 m3/mol and 6.89e-05 m3/mol
623 K | 6.92e-05 m3/mol and 6.915e-05 m3/mol
648 K | 6.945e-05 m3/mol and 6.94e-05 m3/mol
673 K | 6.97e-05 m3/mol and 6.967e-05 m3/mol
698 K | 6.994e-05 m3/mol and 6.992e-05 m3/mol
723 K | 7.019e-05 m3/mol
